For 19 compounds, IC50 results are on record in patent publication US12534469B2 (CHILDREN'S HOSPITAL MEDICAL CENTER, priority 2020, dated 2026).

Type in all cases: biochemical
In one test the target is T1, IRAK1 (Homo sapiens, UniProt P51617).
T1 construct: purchased Reaction Biology (RBC HotSpot Kinase Assay)
Description: RBC HotSpot Kinase Assay, IRAK1. The text has this:
(§1) This assay uses the isolated kinase enzyme. This assay is very useful for determining competition of the inhibitor for ATP and/or substrates and for measuring the kinetics of enzyme inhibition. […] Unlike kinase binding assays that measure competition for ATP, the HotSpot Kinase Assay is a functional assay that measures catalytic activity; as such it measures relative functional potency regardless of the mechanism of enzyme inhibition. This assay uses the form of the various enzymes that are easiest to express, which may not necessarily be the form of the enzyme that exist in the cell. (Sometimes the carboxy terminus has been truncated to aid in expression, or, if it is a receptor kinase, the enzyme itself is isolated from the other parts of the receptor that are involved in regulating kinase activity.)
(§2) The reagent used was as follows: Base Reaction buffer; 20 mM Hepes (pH 7.5), 10 mM MgCl2, 1 mM EGTA, 0.01% Brij35, 0.02 mg/ml BSA, 0.1 mM Na3VO4, 2 mM DTT, 1% DMSO. Required cofactors were added individually to each kinase reaction.
(§3) The reaction procedure was as follows: • 1) Substrates were prepared in freshly prepared Reaction Buffer. • 2) Any required cofactors were delivered to the substrate solution above. • 3) Kinase was delivered into the substrate solution and gently mixed. • 4) Compounds were delivered in 100% DMSO into the kinase reaction mixture by Acoustic technology (Echo550; nanoliter range), followed by incubation for 20 min at room temp. • 5) ^33P-ATP was delivered into the reaction mixture to initiate the reaction. • 6) The mixture was incubated for 2 hours at room temperature. • 7) Kinase activity was detected by P81 filter-binding method.

Another test addresses T2, FLT3 (Homo sapiens, UniProt P36888).
T2 construct: purchased Reaction Biology (RBC HotSpot Kinase Assay)
T2 sequence (P36888 564-958 limits assumed): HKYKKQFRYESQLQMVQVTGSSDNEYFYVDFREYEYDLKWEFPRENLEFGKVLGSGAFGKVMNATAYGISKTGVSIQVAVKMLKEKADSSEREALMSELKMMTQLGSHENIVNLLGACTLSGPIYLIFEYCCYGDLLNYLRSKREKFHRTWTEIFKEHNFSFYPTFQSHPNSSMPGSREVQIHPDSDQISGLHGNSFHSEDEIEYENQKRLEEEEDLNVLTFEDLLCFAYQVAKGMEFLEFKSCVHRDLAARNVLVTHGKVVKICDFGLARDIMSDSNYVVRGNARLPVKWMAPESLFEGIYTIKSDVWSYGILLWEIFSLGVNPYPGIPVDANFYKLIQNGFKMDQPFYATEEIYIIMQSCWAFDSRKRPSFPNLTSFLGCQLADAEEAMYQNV
Kind of test: RBC HotSpot Kinase Assay, FLT3.
Source text: as §1, §2, §3

In the next test the target is T3, IRAK4 (Homo sapiens, UniProt Q9NWZ3).
T3 sequence (Q9NWZ3 1-460): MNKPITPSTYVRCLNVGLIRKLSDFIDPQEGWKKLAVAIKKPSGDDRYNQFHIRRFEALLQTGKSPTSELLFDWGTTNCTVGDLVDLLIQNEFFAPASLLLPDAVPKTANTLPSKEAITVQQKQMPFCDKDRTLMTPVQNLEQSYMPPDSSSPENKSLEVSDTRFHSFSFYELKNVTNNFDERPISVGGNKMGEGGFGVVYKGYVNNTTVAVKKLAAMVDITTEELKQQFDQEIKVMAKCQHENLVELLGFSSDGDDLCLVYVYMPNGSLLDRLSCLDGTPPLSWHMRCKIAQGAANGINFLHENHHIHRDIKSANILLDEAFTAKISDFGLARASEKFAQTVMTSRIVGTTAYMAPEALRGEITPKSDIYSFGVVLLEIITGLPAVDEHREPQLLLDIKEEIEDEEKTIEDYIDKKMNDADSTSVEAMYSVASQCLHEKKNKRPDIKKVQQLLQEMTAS
Kind of test: RBC HotSpot Kinase Assay, IRAK4. Details: purchased Reaction Biology (RBC HotSpot Kinase Assay).
Source text: as §1, §2, §3

The structures appear in SMILES notation.

T1 sequence (P51617 whole entry): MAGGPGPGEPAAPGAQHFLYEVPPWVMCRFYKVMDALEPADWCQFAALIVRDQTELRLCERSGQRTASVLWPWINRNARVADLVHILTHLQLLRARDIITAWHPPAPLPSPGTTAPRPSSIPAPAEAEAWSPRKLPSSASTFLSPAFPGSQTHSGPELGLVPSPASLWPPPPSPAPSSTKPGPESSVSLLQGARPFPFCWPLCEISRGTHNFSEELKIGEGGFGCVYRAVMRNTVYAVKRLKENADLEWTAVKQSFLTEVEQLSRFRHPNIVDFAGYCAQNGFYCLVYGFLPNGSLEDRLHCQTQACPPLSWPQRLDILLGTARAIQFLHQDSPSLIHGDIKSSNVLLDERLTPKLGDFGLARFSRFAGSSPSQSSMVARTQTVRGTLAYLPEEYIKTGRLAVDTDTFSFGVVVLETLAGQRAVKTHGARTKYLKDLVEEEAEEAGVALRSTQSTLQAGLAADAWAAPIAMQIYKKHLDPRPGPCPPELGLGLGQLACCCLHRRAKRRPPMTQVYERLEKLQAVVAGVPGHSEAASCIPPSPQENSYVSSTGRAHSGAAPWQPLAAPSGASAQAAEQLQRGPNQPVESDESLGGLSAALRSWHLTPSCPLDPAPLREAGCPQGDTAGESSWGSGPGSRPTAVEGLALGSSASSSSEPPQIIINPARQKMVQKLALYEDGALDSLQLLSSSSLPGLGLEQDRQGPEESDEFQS

Turning to `c1cc(NC2CCNC2)nc(-c2cnc3ccc(-c4cn[nH]c4)nn23)c1` (stereo not drawn) [Compound 26, 6-(6-(1H-pyrazol-4-yl)imidazo[1,2-b]pyridazin-3-yl)-N-(pyrrolidin-3-yl)pyridin-2-amine], the values for the IC50 against IRAK1, against FLT3 and against IRAK4 were 114 nM, 0.9 nM and 20 nM, respectively.
Regarding `CC(C)n1cc(-c2ccc3ncc(-c4cccc(NC5CCNC5)n4)n3n2)cn1` (stereo not drawn) [Compound 27, 6-(6-(1-isopropyl-1H-pyrazol-4-yl)imidazo[1,2-b]pyridazin-3-yl)-N-(pyrrolidin-3-yl)pyridin-2-amine], the IC50 at IRAK1 was 1620 nM; against FLT3, 5 nM; at IRAK4, 609 nM.
For `c1ccc(-n2cc(-c3ccc4ncc(-c5cccc(NC6CCNC6)n5)n4n3)cn2)cc1` (stereo not drawn) [Compound 28, 6-(6-(1-phenyl-1H-pyrazol-4-yl)imidazo[1,2-b]pyridazin-3-yl)-N-(pyrrolidin-3-yl)pyridin-2-amine], in that order: 6580 nM, 2 nM and 2360 nM.
In the case of `c1cc(NC2CCNC2)nc(-c2cnc3ccc(-c4cnn(C5CCOCC5)c4)nn23)c1` (stereo not drawn) [Compound 29, N-(pyrrolidin-3-yl)-6-(6-(1-(tetrahydro-2H-pyran-4-yl)-1H-pyrazol-4-yl)imidazo[1,2-b]pyridazin-3-yl)pyridin-2-amine], the IC50 on IRAK1 was 13000 nM; at FLT3, 4 nM; against IRAK4, 2460 nM.
For `Cn1cc(-c2ccc3ncc(-c4cccc(NC5CCNC5)n4)n3n2)cn1` (stereo not drawn) [Compound 30, 6-(6-(1-methyl-1H-pyrazol-4-yl)imidazo[1,2-b]pyridazin-3-yl)-N-(pyrrolidin-3-yl)pyridin-2-amine], the concentration for half-maximal inhibition (IC50) was 565 nM against IRAK1, 2 nM on FLT3 and 104 nM at IRAK4.
Take `c1cc(NC2CC3(CNC3)C2)nc(-c2cnc3ccc(-c4cn[nH]c4)nn23)c1` [Compound 31, N-(6-(6-(1H-pyrazol-4-yl)imidazo[1,2-b]pyridazin-3-yl)pyridin-2-yl)-2-azaspiro[3.3]heptan-6-amine]: the IC50 at IRAK1 worked out at 49 nM; against FLT3 it was 0.5 nM; at IRAK4, 6 nM.
On to `CC(C)n1cc(-c2ccc3ncc(-c4cccc(NC5CC6(CNC6)C5)n4)n3n2)cn1` [Compound 32, N-(6-(6-(1-isopropyl-1H-pyrazol-4-yl)imidazo[1,2-b]pyridazin-3-yl)pyridin-2-yl)-2-azaspiro[3.3]heptan-6-amine], for which the IC50 on IRAK1 was found to be 3410 nM; at FLT3 it was 9 nM; on IRAK4, 630 nM.
For `c1ccc(-n2cc(-c3ccc4ncc(-c5cccc(NC6CC7(CNC7)C6)n5)n4n3)cn2)cc1` [Compound 33, N-(6-(6-(1-phenyl-1H-pyrazol-4-yl)imidazo[1,2-b]pyridazin-3-yl)pyridin-2-yl)-2-azaspiro[3.3]heptan-6-amine], the IC50 was greater than 10000 nM at IRAK1, 16 nM against FLT3 and 3360 nM at IRAK4.
For `c1cc(NC2CC3(CNC3)C2)nc(-c2cnc3ccc(-c4cnn(C5CCOCC5)c4)nn23)c1` [Compound 34, N-(6-(6-(1-(tetrahydro-2H-pyran-4-yl)-1H-pyrazol-4-yl)imidazo[1,2-b]pyridazin-3-yl)pyridin-2-yl)-2-azaspiro[3.3]heptan-6-amine], the IC50 was greater than 10000 nM against IRAK1, 16 nM at FLT3 and 5070 nM against IRAK4.
For `Cn1cc(-c2ccc3ncc(-c4cccc(NC5CC6(CNC6)C5)n4)n3n2)cn1` [Compound 35, N-(6-(6-(1-methyl-1H-pyrazol-4-yl)imidazo[1,2-b]pyridazin-3-yl)pyridin-2-yl)-2-azaspiro[3.3]heptan-6-amine], in that order: 2820 nM, 3 nM and 126 nM.
As for `Cc1oncc1-c1ccc2ncc(-c3cccc(NC4CC5(CNC5)C4)n3)n2n1` [Compound 36, N-(6-(6-(5-methylisoxazol-4-yl)imidazo[1,2-b]pyridazin-3-yl)pyridin-2-yl)-2-azaspiro[3.3]heptan-6-amine], the IC50 at IRAK1 worked out at 3780 nM; at FLT3 it was 5 nM; against IRAK4, 2700 nM.
For `c1cc(NC2CC3(CNC3)C2)nc(-c2cnc3ccc(-c4cnn(C5CNC5)c4)nn23)c1` [Compound 37, N-(6-(6-(1-(azetidin-3-yl)-1H-pyrazol-4-yl)imidazo[1,2-b]pyridazin-3-yl)pyridin-2-yl)-2-azaspiro[3.3]heptan-6-amine], in that order: greater than 10000 nM, 7 nM and 4320 nM.
Turning to `c1cc(NC2CC3(CCNC3)C2)nc(-c2cnc3ccc(-c4cn[nH]c4)nn23)c1` (stereo not drawn) [Compound 38, N-(6-(6-(1H-pyrazol-4-yl)imidazo[1,2-b]pyridazin-3-yl)pyridin-2-yl)-6-azaspiro[3.4]octan-2-amine], the figures for the IC50 on IRAK1, on FLT3 and against IRAK4 were 23 nM, less than 0.5 nM and 2 nM, respectively.
As for `CC(C)n1cc(-c2ccc3ncc(-c4cccc(NC5CC6(CCNC6)C5)n4)n3n2)cn1` (stereo not drawn) [Compound 39, N-(6-(6-(1-isopropyl-1H-pyrazol-4-yl)imidazo[1,2-b]pyridazin-3-yl)pyridin-2-yl)-6-azaspiro[3.4]octan-2-amine], the values for the IC50 at IRAK1, on FLT3 and at IRAK4 were 2330 nM, 8 nM and 321 nM, respectively.
For `c1ccc(-n2cc(-c3ccc4ncc(-c5cccc(NC6CC7(CCNC7)C6)n5)n4n3)cn2)cc1` (stereo not drawn) [Compound 40, N-(6-(6-(1-phenyl-1H-pyrazol-4-yl)imidazo[1,2-b]pyridazin-3-yl)pyridin-2-yl)-6-azaspiro[3.4]octan-2-amine], the IC50 on IRAK1 is greater than 10000 nM; at FLT3, 9 nM; at IRAK4, 1300 nM.
Consider `c1cc(NC2CC3(CCNC3)C2)nc(-c2cnc3ccc(-c4cnn(C5CCOCC5)c4)nn23)c1` (stereo not drawn) [Compound 41, N-(6-(6-(1-(tetrahydro-2H-pyran-4-yl)-1H-pyrazol-4-yl)imidazo[1,2-b]pyridazin-3-yl)pyridin-2-yl)-6-azaspiro[3.4]octan-2-amine], for which the IC50 against IRAK1 was greater than 10000 nM; at FLT3, 18 nM; at IRAK4 it was 3480 nM.
With `Cn1cc(-c2ccc3ncc(-c4cccc(NC5CC6(CCNC6)C5)n4)n3n2)cn1` (stereo not drawn) [Compound 42, N-(6-(6-(1-methyl-1H-pyrazol-4-yl)imidazo[1,2-b]pyridazin-3-yl)pyridin-2-yl)-6-azaspiro[3.4]octan-2-amine], the results for the IC50 against IRAK1, on FLT3 and at IRAK4 were 2220 nM, 3 nM and 113 nM, respectively.
In the case of `c1cc(NC2CC3(CCNC3)C2)nc(-c2cnc3ccc(-c4cnn(C5CNC5)c4)nn23)c1` (stereo not drawn) [Compound 44, N-(6-(6-(1-(azetidin-3-yl)-1H-pyrazol-4-yl)imidazo[1,2-b]pyridazin-3-yl)pyridin-2-yl)-6-azaspiro[3.4]octan-2-amine], the figures for the IC50 at IRAK1, against FLT3 and against IRAK4 were greater than 10000 nM, 4 nM and 4340 nM, respectively.
In the case of `c1cc(NC2CCC3(CNC3)C2)nc(-c2cnc3ccc(-c4cn[nH]c4)nn23)c1` (stereo not drawn) [Compound 45, N-(6-(6-(1H-pyrazol-4-yl)imidazo[1,2-b]pyridazin-3-yl)pyridin-2-yl)-2-azaspiro[3.4]octan-6-amine], the IC50 at IRAK1 was 37 nM; against FLT3, less than 0.5 nM; at IRAK4, 8 nM.

As usually defined, the IC50 is the concentration needed to halve the response being measured. A lower IC50 goes with inhibition by little substance.
